In article PMC5358534, “Optical control of AMPA receptors using a photoswitchable quinoxaline-2,3-dione antagonist” (Chemical Science, 2016) one finds inhibition data, which are given here for 1 compound.

Molecules are shown by their SMILES.

One assay deals with T1, GluK2 receptor (Rattus norvegicus, UniProt P42260).
T1 construct: gene Grik2; GluK2-containing receptors expressed in Xenopus oocytes
Put plainly: Xenopus oocyte currents, […] ShuBQX-3 in the dark; […] antagonism at […] glutamate, […] at […] glutamate. It counts as cell-based. The settings on record: read-out: % antagonism at 5 μM (30 μM glutamate).

In assay [1] the target is T2, GluA1 (GluA1-containing receptors) (Rattus norvegicus, UniProt P19490).
T2 construct: gene Gria1; GluA1-containing receptors expressed in Xenopus oocytes
T2 sequence (P19490 19-907): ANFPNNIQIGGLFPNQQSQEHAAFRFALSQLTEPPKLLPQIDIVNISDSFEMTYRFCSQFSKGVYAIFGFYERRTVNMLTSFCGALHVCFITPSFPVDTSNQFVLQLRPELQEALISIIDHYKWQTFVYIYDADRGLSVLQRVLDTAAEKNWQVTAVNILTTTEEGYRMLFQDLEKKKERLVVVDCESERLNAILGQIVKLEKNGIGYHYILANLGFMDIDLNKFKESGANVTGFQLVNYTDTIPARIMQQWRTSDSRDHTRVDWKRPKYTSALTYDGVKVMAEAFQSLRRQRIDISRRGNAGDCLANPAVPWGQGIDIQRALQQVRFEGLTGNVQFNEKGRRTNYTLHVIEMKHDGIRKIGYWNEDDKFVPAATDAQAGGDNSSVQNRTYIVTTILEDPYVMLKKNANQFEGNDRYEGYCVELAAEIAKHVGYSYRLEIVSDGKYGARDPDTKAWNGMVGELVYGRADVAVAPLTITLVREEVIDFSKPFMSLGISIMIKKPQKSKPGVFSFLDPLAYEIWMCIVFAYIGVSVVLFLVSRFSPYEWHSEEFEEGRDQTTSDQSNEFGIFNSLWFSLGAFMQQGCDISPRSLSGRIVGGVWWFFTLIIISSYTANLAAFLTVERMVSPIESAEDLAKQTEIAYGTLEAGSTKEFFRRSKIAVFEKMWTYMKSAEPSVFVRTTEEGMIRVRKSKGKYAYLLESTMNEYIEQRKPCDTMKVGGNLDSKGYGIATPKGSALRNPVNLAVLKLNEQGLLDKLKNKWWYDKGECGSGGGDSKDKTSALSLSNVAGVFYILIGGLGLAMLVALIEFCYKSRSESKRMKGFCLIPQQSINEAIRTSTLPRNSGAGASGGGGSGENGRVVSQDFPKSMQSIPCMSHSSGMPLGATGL
Put plainly: Xenopus oocyte currents, […] kainic acid, […] ShuBQX-3 in the dark ([…] antagonism). In kind it is cell-based.

T1 sequence (P42260 32-908): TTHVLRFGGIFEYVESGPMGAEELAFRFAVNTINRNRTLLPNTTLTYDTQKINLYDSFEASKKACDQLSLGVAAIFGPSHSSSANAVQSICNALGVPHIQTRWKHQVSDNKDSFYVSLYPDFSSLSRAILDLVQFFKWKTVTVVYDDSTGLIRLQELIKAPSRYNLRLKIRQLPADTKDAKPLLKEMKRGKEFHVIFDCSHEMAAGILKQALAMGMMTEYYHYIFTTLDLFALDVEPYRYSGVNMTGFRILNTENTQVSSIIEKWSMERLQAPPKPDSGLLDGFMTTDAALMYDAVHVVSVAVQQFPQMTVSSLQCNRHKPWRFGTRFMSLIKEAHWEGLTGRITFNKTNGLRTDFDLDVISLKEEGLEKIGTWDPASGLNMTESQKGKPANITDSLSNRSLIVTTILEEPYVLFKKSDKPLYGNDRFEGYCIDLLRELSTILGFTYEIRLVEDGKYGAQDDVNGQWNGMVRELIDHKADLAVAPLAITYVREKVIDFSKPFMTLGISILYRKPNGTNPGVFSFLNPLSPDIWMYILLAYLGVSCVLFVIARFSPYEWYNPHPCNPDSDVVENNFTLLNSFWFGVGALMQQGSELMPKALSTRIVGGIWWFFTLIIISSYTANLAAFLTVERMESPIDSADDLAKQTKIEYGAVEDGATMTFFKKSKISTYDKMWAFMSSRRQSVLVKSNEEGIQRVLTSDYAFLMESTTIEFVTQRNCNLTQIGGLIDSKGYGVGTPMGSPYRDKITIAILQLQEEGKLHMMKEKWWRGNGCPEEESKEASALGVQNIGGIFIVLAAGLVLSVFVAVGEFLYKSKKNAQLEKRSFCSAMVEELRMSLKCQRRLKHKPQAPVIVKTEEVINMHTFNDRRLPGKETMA

Consider `O=c1[nH]c2cc(C(F)(F)F)c(/N=N/c3ccccc3)cc2n(CP(=O)(O)O)c1=O` [ShuBQX-3], for which the inhibition at 5 µM at GluK2 receptor is 49%; in assay [1] it was 85 to 93%.
